In patent US20170035691A1, “FOOD MATRICES AND METHODS OF MAKING AND USING” (UNIVERSITY OF MASSACHUSETTS, priority 2014, published 2017):
In brackets after ≈: the same amount, converted by molar mass. Each block holds one compound with its values, some of them ahead of it.

Key:
[1] = Rat feeding study: heptadecanoic acid and CoQ10 in duodenum, jejunum, ileum (Example 2); assay type: in vivo; conditions: for bioavailability in small intestinal tissues: encapsulated within digestible (corn oil) droplets with the smallest size, rat feeding study
Procedure: An animal feeding study was used to test the bioavailability of free fatty acids and CoQ10. Female Sprague Dawley rats (about 200-250 g) were purchased from Charles River Laboratories (Wilmington, Mass.). The Institutional Animal Care and Use Committee of the University of Massachusetts, Amherst, approved all animal procedures. Animals were housed in individual wire-bottomed cages in a windowless room with a 12-h light-dark cycle. After 10 days of adaptation, rats were fasted for 6 hours and 5 ml of emulsion was administered into a rat's stomach using a feeding needle (Roboz Surgical Instrument, Gaithersburg, Md.). Sample administration was conducted five times with 30 min intervals. Thirty min after the final administration, the rats were sacrificed by CO2 gas asphyxiation and blood samples were collected via cardiac puncture. Collected blood samples were allowed to clot for 30 min and then the serum layer was separated by centrifugation at 800 g for 20 min at 4° C. Serum was kept at −80° C. until analysis. The small intestine was flushed with phosphate buffered saline (PBS) five times, and the duodenum, jejunum, and ileum were collected. The intestine samples were kept at −80° C. until fatty acid composition and CoQ10 analyses. The in vivo experiment was carried out once, using three rats per sample analyzed.
Intestine extract was prepared by a method described previously by Tang, P. H., Miles, M. V., Miles, L., Quinlan, J., Wong, B., Wenisch, A., and Bove, K., “Measurement of reduced and oxidized coenzyme Q(9) and coenzyme Q(10) levels in mouse tissues by HPLC with coulometric detection”, Clinica Chimica Acta, 341(1-2):173-84 (2004), which is incorporated herein in its entirety. After thawing the intestine, approximately, 50 mg of intestine was weighed and 1 ml of ice cold 0.15M NaCl solution was added. Intestine sample (about 50 mg) was homogenized on ice and 50 μL of CoQ6 solution (Internal standard) and 25 μL of 1,4-benzoquione (5 mg/mL) solution was added to oxidize CoQ10. After 30 min. incubation at room temperature, 5 ml of 1-propanol was added and then mixed by vortexing for 1 min. Sample was centrifuged at 2,000 g for 5 min and the supernatant was filtered with a 0.1 μm disposable syringe filter (Celltreat, Shirley, Mass.). The oxidized CoQ10 concentration was standardized relative to the tissue weight.
Quantitative analysis was carried out using a high performance liquid chromatography system (Shimadzu Co. Japan) equipped with a pump (LC-10 AT), UV-visible detector (SPD-M10A), and controller (SCL-10A). A reverse phase C-18 column (ODS-2 Hypersil, 200×4.6 mm, 5 μm, Thermo scientific, Waltham, Mass.) was used. The mobile phase comprised of a mixture of 4.2 g sodium acetate anhydrous, 15 mL of glacial acetic acid, 15 mL 2-propanol, 830 mL methanol, and 140 ml hexane. The injection volume was 100 μl, the flow rate was 1 ml/min, UV detection was made at 275 nm and all analysis was performed at room temperature under isocratic conditions.
Lipids were extracted from samples (duodenum, jejunum, ileum) and blood using a standard method by Folch, J., Lees, M., and Stanley, G. H. S., “A simple method for the isolation and purification of total lipids from animal tissues”, Journal of Biological Chemistry, 226(1):497-509 (1957), which is incorporated herein in its entirety, and then the fatty acids were methylated prior to gas chromatography analysis as taught by Park, Y. and Pariza, M. W., “Evidence that commercial calf and horse sera can contain substantial amounts of trans-10,cis-12 conjugated linoleic acid”, Lipids, 33(8):817-19 (1998), which is incorporated herein in its entirety. Tridecenoic acid was used as an internal standard. Methyl esters of fatty acids were analyzed using a GC instrument (GC-17A, Shimadzu, Kyoto, Japan) fitted with a flame-ionization detector. […]

[2] = In vitro digestion model: bioaccessibility of β-carotene crystals mixed with emulsion or buffer (FIG. 6); assay type: in vitro ADME; conditions: β-carotene crystals mixed with oil-in-water emulsion (4% corn oil) versus buffer solution (PBS) without oil
Procedure: In this exemplary embodiment, β-carotene crystals were initially mixed with either an oil-in-water emulsion (containing 4% corn oil) or a buffer solution (PBS) containing no oil. The resulting mixtures were then passed through an in vitro gastrointestinal model that simulated the mouth, stomach, and small intestine. The bioaccessibility of β-carotene was determined by centrifuging the digesta resulting from a GIT model, and then measuring the fraction of β-carotene in the mixed micelle (middle phase). The GIT model used is described in Salvia-Trujillo, L.; Qian, C.; Martin-Belloso, O.; McClements, D. J., “Influence of Particle Size on Lipid Digestion and β-carotene Bioaccessibility in Emulsions and Nanoemulsions”, Food Chemistry, 141:1472-80 (2013), which is incorporated by reference herein in its entirety and for all purposes. In another instance, the method of these teachings also include using an animal feeding study to verify improvement of oral bioavailability when the predetermined pharmaceutical or nutraceutical is ingested with the food matrix. […]

[3] = Simulated gastrointestinal tract model: β-carotene bioaccessibility of nanoemulsions (Example 1); assay type: in vitro ADME; conditions: nanoemulsion, 0% corn oil (pure lemon oil system)
Procedure: Each β-carotene-enriched nanoemulsion was passed through a three-step simulated GIT model that consisted of a mouth, gastric, and small intestine phase. The particle size, charge, and microstructure of the samples were measured after incubation in each stage. […]
Small Intestine phase: Digesta samples (30 ml) obtained from the simulated gastric phase were placed in a beaker incubated in a water bath (37° C.) for 10 min and then adjusted to pH 7 with NaOH solution (0.05 or 1 M). […] The amount of free fatty acids released was calculated from the titration curves as described in Li, Y. and McClements, D. J., New Mathematical Model for Interpreting pH-Stat Digestion Profiles: Impact of Lipid Droplet Characteristics on in Vitro Digestibility”, Journal of Agricultural and Food Chemistry, 58:8085-92 (2010), which is incorporated herein in its entirety. The release of free fatty acids from the digestible oil (corn oil) was calculated by subtracting the FFA concentration determined at each time point for the pure lemon oil nanoemulsions from the FFA concentration determined for the nanoemulsions containing corn oil. […]

[4] = Curcumin solubility in curcumin-emulsion mixtures, spectrophotometric (Example 3); assay type: physicochemical; conditions: excipient emulsion, aqueous with cosolvent or surfactant or cyclodextrin, thermodynamic from solid
Procedure: Preparation of curcumin-emulsion, curcumin-oil, and curcumin-buffer mixtures. […] After incubation, selected samples were immediately placed in an ice water and then used for the following experiments. In some experiments, the curcumin was mixed with bulk corn oil or with buffer (PBS) solution rather than an emulsion.
(§1) 1 mL of supernatant was then mixed with 5 mL chloroform, vortexed, and centrifuged at 1750 rpm for 10 min at ambient temperature. […] The two bottom chloroform layers were combined, and diluted to an appreciate concentration to be analyzed by a UV-VIS spectrophotometer at 419 nm (Ultraspec 3000 pro, GE Health Sciences, USA). A cuvette containing pure chloroform was used as a reference cell.

[5] = Curcumin oil-solubility in bulk corn oil by turbidity (Example 3); assay type: physicochemical; conditions: for dissolution of curcumin crystals in corn oil (turbidity versus time): 3 mg/mL
Procedure: In some experiments, the change in turbidity with time was measured at a fixed incubation temperature (30 or 100° C.) to determine the kinetics of isothermal dissolution.

[6] = Cross-polarized light microscopy of curcumin crystals in mixtures (Example 3); assay type: physicochemical
[7] = Curcumin solubility in curcumin-excipient emulsion mixtures of different droplet size (Example 4); assay type: physicochemical; conditions: for solubility at 10 min: aqueous with cosolvent or surfactant or cyclodextrin, thermodynamic from solid, after incubation at 100° C.; for amount of curcumin present within the emulsion: 30° C. for 30 min
Procedure: The resulting mixtures were then incubated at either 30° C. for 30 min or 100° C. for 10 min to simulate a salad dressing or a cooking sauce, respectively. After incubation, selected samples were immediately placed in an ice water and then used for the following experiments.
as §1, with “One millilitre” for “1 mL”, “rpm (≈940×G)” for “rpm”, “a” for “an appreciate”, “concentration suitable” for “concentration”, “analysed” for “analyzed”, “Sciences, Pittsburgh, Pa.,” for “Sciences,”

[8] = Cross-polarized light microscopy of curcumin crystals (Example 4); assay type: physicochemical

SMILES: CCCCCCCCCCCCCCCCC(=O)O [heptadecanoic acid, reference compound]
- bioavailability in small intestinal tissues [1]: highest
- absorption of heptadecanoic acid in duodenum and jejunum ([1]; rat, in vivo): slightly more absorption
- absorption of heptadecanoic acid in duodenum, jejunum and ileum ([1]; rat, in vivo): significantly higher

- bioaccessibility of β-carotene [2]: increases the bioaccessibility
- bioaccessibility of β-carotene [3]: ≈ 5%
SMILES: CC1=C(/C=C/C(C)=C/C=C/C(C)=C/C=C/C=C(C)/C=C/C=C(C)/C=C/C2=C(C)CCCC2(C)C)C(C)(C)CCC1 [β-carotene]

- solubility at 60 min ([4]; incubation for 60 min at 30° C.): ~54 µg/mL (≈ 147 µM)
- solubility at 60 min ([4]; incubation for 60 min at 90° C. (so in the source)): ~218 µg/mL (≈ 592 µM)
- dissolution of curcumin crystals in corn oil (turbidity versus time) ([5]; held at 30° C.): only dissolved slowly
- dissolution of curcumin crystals in corn oil (turbidity versus time) ([5]; held at 100° C.): rapidly dissolved
- solubility ([5]; bulk corn oil, oil or lipid, thermodynamic from solid, ambient temperature, estimated from turbidity at 3 and 4 mg/mL): 3000 to 4000 µg/mL (≈ 8140 to 10900 µM)
- dissolution of curcumin crystals in curcumin-emulsion mixtures ([6]; held at 100° C., any incubation time): rapidly and completely dissolved
- dissolution of curcumin crystals in curcumin-emulsion mixtures ([6]; incubated at 30° C. from 10 to 120 min): did not completely dissolve
- solubility at 10 min ([7]; excipient emulsion, large droplets): 230 µg/mL (≈ 624 µM)
- solubility at 10 min ([7]; excipient emulsions, small and medium droplets): 270 to 280 µg/mL (≈ 733 to 760 µM)
- amount of curcumin present within the emulsion ([7]; large emulsion): ~88 ± 26 µg/mL
- amount of curcumin present within the emulsion ([7]; medium emulsion): ~104 ± 6 µg/mL
- amount of curcumin present within the emulsion ([7]; small emulsion): around 66±1 μg/mL
- dissolution of curcumin crystals in curcumin-excipient emulsion mixtures ([8]; all mixtures held at 100° C.): rapidly and completely dissolved
- dissolution of curcumin crystals in curcumin-excipient emulsion mixtures ([8]; all mixtures incubated at 30° C.): did not completely dissolve
SMILES: COc1cc(/C=C/C(=O)CC(=O)/C=C/c2ccc(O)c(OC)c2)ccc1O [curcumin]

SMILES: COC1=C(OC)C(=O)C(C/C=C(\C)CC/C=C(\C)CC/C=C(\C)CC/C=C(\C)CC/C=C(\C)CC/C=C(\C)CC/C=C(\C)CC/C=C(\C)CC/C=C(\C)CCC=C(C)C)=C(C)C1=O [CoQ10, Coenzyme Q10]
- bioavailability in small intestinal tissues [1]: highest
- absorption of CoQ10 in all regions of the small intestine ([1]; rat, in vivo): some absorption
- absorption of CoQ10 in duodenum ([1]; rat, in vivo): no significant differences
- absorption of CoQ10 in jejunum and ileum ([1]; rat, in vivo): significantly higher
